Measurements as given in patent US20240383941A1, “3-ALPHA SUBSTITUTED 3-BETA-HYDROXY-17-OXIMATED ANDROSTANE COMPOUND FOR MODULATION OF THE ALPHA-3 SUBTYPE OF THE GABAA RECEPTOR” (priority 2021, published 2024).
Values joined by “and” are separate entries in the source; they are usually repeats but may differ in a detail not shown here. Equal entries are not always repeated. “Also recorded” adds a separate entry of the source.

Legend:
[1] = molecular target: T1, human α3β3γ2L GABAA receptor subtype (Homo sapiens, UniProt P28472+P34903); assay: Whole-cell patch clamp (Dynaflow) on HEK-293 cells expressing the GABAA receptor α3β3γ2L subtype; format: cell-based; conditions: for 100 μM GABA mediated current response, area under curve, Mean ± SEM: 1 μM steroid + 100 μM GABA, relative to 100 μM GABA (set as 0%); for reduction (block) of the THDOC enhanced effect / effect on GABAs own effect on current response / reduction of the GABA effect: 100 μM GABA; for reduction (block) of the THDOC enhanced effect / reduction of the GABA effect: stated as size of reduction; for activation of the receptor / own effect in absence of GABA: steroid alone, in absence of GABA and/or THDOC
T1 construct: expressed in transfected cells; host or cells: HEK-293 cells (wild-type cells obtained from Pasteur Institute, Paris), permanently transfected
T1 sequence (P34903 29-492): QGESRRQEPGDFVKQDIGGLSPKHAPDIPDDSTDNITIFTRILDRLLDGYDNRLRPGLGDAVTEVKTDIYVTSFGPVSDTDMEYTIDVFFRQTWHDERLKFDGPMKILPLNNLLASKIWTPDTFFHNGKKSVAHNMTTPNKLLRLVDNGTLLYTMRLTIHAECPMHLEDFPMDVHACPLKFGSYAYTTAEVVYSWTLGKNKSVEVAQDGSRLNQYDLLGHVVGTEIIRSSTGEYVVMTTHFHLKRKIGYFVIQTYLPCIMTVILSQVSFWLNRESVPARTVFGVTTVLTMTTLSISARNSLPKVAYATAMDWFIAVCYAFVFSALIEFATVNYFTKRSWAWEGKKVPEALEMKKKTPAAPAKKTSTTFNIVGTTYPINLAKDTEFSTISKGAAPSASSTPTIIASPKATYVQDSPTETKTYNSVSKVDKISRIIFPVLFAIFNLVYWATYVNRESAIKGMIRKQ
T1 sequence (P28472 26-473): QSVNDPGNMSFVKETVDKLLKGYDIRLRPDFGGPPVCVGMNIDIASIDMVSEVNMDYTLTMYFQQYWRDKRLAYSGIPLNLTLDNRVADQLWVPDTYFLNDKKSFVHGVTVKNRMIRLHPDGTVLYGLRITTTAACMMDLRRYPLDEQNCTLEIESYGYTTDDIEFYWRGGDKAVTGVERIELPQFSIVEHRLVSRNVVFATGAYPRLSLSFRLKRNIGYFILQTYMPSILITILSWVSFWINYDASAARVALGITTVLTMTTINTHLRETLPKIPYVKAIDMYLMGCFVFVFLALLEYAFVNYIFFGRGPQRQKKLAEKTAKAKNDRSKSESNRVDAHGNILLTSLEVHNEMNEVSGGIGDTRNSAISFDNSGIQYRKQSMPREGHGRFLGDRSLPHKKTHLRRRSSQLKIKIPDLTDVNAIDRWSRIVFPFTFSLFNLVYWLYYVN
T1 sequence (P18507 40-475 partner): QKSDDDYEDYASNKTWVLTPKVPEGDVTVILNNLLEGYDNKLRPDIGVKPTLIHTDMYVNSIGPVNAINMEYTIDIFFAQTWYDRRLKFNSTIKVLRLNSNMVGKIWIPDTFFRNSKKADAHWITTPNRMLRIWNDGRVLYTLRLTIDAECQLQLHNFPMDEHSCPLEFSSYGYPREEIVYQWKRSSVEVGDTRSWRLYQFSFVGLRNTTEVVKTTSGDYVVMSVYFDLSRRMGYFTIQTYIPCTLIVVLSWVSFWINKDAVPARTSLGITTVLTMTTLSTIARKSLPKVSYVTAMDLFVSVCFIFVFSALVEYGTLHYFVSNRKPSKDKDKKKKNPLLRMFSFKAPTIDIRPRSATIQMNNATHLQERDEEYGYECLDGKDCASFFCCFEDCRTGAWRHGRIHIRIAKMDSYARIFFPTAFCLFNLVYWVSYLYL
Protocol: Aim: To investigate the effect of 3α-ethynyl-3β-hydroxy-5α-androstan-17-methoxime and 3α-ethyl-3β-hydroxy-5α-androstan-17-oxime, respectively, on the GABAA receptor function. Experiments were performed both in absence and in presence of the GAMS tetrahydrodeoxycorticosterone (THDOC), in the absence and presence of GABA. In these tests the protocol was optimized to be similar to the physiological conditions in the synaptic cleft.
Cell culture: Wild-type HEK-293 cells passage 4 (obtained from Pasteur Institute, Paris, France), permanently transfected with cDNA to express the human α3β3γ2L GABAA receptor subtype, were seeded in cell bind culture flasks, grown and maintained at the temperature of +37° C., with a gas mixture of 5% CO2 in the cell incubator. The transfected cells were used for patch-clamp experiments minimum one passages after defrosting and 3-5 days after seeding. The α3β3γ2L cells were seeded for maximal 15 times.
Electrophysiological recordings: Whole cell patch technique was used to record whole-cell currents from the cells. Patch electrodes were pulled from 1.5 mm O.D., 0.86 mm I.D. borosilicate capillary glass without filament. […] After compensation for liquid junction potential a steady holding potential of −17 mV was used in all experiments. The cells were added to the chip (see below) and kept in EC solution (see above). EC solution with or without steroids and GABA were applied by the Dynaflow™ system (see below). All experiments were performed at room temperature (21-23° C.).
Dynaflow™ system: Dynaflow™ system with Resolve chips was used for all patch-clamp experiments including steroids. The Resolve chip consists of a glass chip enclosed by a PEEK plastic top part and a supporting plastic bottom part. Both wells and channels are glass coated. The channel width is 150 μm and the height 50 μm. The well volume is 150 μL. Run time at the flow rate of 26 μL/min was 90 min. The pump settings were as follows: BD Plastikpak™ 2 mL syringe with inner diameter of 8.1 mm was used. The syringe pump flow rate for Resolve chip was 26 μL/min.
The Resolve chip allows synchronized control of switching between 16 experimental solutions. Laminar flow at each solution outlet of the microfluidic chip prevents mixing, and a computer-controlled stage motor is used to move the chip relative to the patch pipette, allowing for relatively rapid solution exchange around the membrane patch. PClamp 9.0 software, DigiData 1322A converter and AxonPatch 200B were used to generate command pulses and collect data. Clampfit 10.3, Prism 6.0 and excel were used for data analyzes.
GABA and steroids: GABA was dissolved in EC-solution by ultrasound for about 20 minutes at maximal 40° C. to the concentration of 10 mM.
THDOC was dissolved in ethanol 99.5% to the concentration of 0.2 mM and tested steroids dissolved in ethanol 99.5% to the concentration of 2 mM (with ultrasound). The final ethanol concentration was 0.1% in all end-solutions, including the wash solution (EC) and the solution with GABA alone. End-solutions are the solutions added into the wells of the chip.
Protocol: The binding site of THDOC is in the […] region of the receptor. To achieve stable response, the cell was exposed to steroid (THDOC and/or steroid) 20 seconds before GABA application. The standard protocol as follow: 20 s preincubation of steoids (100 nM THDOC alone or in combination with one of 1 μM 3α-ethynyl-3β-hydroxy-5α-androstan-17-methoxime and 3α-ethyl-3β-hydroxy-5α-androstan-17-oxime), followed by 2 s application of 100 μM GABA±steroids (100 nM THDOC alone or in combination with one of 1 μM 3α-ethynyl-3β-hydroxy-5α-androstan-17-methoxime and 3α-ethyl-3β-hydroxy-5α-androstan-17-oxime). Washout time was 120 s.
Steroid (3α-ethynyl-3β-hydroxy-5α-androstan-17-methoxime or 3α-ethyl-3β-hydroxy-5α-androstan-17-oxime)+THDOC, in absence of GABA, were therefore not analyzed. […]

[2] = molecular target: T2, GABAA receptor subtype α1β2γ2 (Homo sapiens, UniProt P14867+P47870); assay: Patch clamp on GABAA receptor subtype α1β2γ2, essentially as described in Example 2; format: cell-based
T2 construct: expressed in transfected cells
T2 sequence (P14867 28-456): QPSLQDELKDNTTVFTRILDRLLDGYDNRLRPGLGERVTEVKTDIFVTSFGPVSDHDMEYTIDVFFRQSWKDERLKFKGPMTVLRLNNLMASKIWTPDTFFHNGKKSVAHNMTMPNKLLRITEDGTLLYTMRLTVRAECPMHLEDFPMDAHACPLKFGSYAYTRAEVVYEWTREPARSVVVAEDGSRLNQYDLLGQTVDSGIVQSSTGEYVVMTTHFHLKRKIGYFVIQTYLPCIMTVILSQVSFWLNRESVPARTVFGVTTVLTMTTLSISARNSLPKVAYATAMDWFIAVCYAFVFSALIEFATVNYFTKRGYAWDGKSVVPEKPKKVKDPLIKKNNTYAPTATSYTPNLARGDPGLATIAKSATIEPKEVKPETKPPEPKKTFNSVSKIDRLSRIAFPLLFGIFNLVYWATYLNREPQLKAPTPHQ
T2 sequence (P47870 25-512 limits assumed): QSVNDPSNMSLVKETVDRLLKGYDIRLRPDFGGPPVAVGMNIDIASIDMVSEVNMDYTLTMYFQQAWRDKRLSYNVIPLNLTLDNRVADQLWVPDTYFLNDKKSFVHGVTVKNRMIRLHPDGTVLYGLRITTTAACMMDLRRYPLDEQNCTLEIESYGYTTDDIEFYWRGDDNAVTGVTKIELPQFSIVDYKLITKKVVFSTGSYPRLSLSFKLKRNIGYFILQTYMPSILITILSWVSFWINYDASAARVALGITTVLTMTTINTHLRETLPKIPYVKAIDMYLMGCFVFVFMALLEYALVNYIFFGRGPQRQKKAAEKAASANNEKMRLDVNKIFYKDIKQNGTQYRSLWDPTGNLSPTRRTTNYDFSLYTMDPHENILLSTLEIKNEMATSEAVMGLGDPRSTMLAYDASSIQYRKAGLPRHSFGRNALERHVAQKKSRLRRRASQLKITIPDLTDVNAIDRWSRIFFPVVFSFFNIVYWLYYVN
T2 sequence (P18507 40-475 partner): as the sequence (P18507 40-475 partner) above

[3] = Weight increase in growing male rats, experiment 1 (5 days IV); format: in vivo, Male Wistar rats
Protocol: (§1) Animals: Male Wistar rats were kept in group cages, with three animals per cage, from delivery and throughout the period of experiments. The individual animals were marked so that they could be identified throughout the experiment duration. The animals weight an average of 152 g upon arrival. A reversed light dark (12:12 h) cycle was used with the dark period onset at 0600 hrs. Altogether fifty-six (56) rats were used in this study (experiment 1+2). The animals were delivered from the breeder Taconic (Denmark). The study protocol was approved by the Regional Ethics Committee of Umea University, Sweden.
(§2) Feeding: Standard chow and water were available ad libitum. A reversed 12-h dark-light cycle with lights off at 10.00 am and lights on at 22.00 pm was used. For identification, the rats were marked with a permanent marker on the tail. To avoid the endogenous allopregnanolone fluctuations that are present in the estrous cycle of female rats, male rats were chosen (Frye et al. 2000). The animals were allowed to acclimatize for at least 3 weeks before start of the experimental sessions. During this period, the rats were repeatedly handled and allowed habituation to the new environment and to all new procedures, to minimize stress during the experiments.
(§3) After 14 days of triad housing, handling and injection training of the animals, the animals were treated for 5 days with IV injections in experiment 1 and 10 days with a daily subcutaneous injection of the assigned treatment in experiment 2 (Table 3 and 4). The injections were given at 08.00 every morning. The animals were weighed the day before onset of the treatment and at the last day of injection i.e. on the 5th or 10th day of treatment. Weight was taken at the time of the last injection. […] The results are shown in FIG. 2 (experiment 1) and FIG. 3 (experiment 2), respectively.

[4] = Weight increase in growing male rats, experiment 2 (10 days s.c.); format: in vivo, Male Wistar rats
Protocol: as §1, §2, §3

[5] = tested on: GABAA receptor; conditions: table 3 in WO 09/142594; cited from earlier work
[6] = 2 mg/kg IV daily for 5 days, in 10% 2-Hydroxypropyl-β-cyclodextrin
[7] = 1 mg/kg s.c. + 5 mg/kg progesterone + 10 μg/kg 17β-estradiol

## C#C[C@]1(O)CC[C@@]2(C)[C@@H](CC[C@@H]3[C@@H]2CC[C@]2(C)C(=O)CC[C@@H]32)C1 [3α-ethynyl-3β-hydroxy-5α-androstan-17-one]
[1]; 1 μM steroid + THDOC, Table 6
  Antagonism of 100 nM THDOC-enhancement, α3β3γ2: −166 ± 19.9%,
[1]; 1 μM steroid, Table 6
  Effect against GABAs agonistic effect, α3β3γ2: −46 ± 1.3%,
[2]; 1 μM steroid
  Effect against GABAs agonistic effect, α1β2γ2: −1.9 ± 2.4%
[2]; 1 μM steroid + THDOC
  Antagonism of 100 nM THDOC-enhancement, α1β2γ2: No effect
[3]; [6]
  Mean weight increase since arrival: 97.43 g
  Mean weight increase since treatment start: 11.86 g
[3]; 2 mg/kg IV, 5 days
  increase in weight compared to vehicle treated groups: significantly lower
[4]; [7]
  weight difference compared to vehicle: -33 ± 4.4 g
  weight difference versus E+P control rats: -23.9 ± 4.4 g
[4]; 5 mg/kg s.c. + 5 mg/kg progesterone + 10 μg/kg 17β-estradiol
  weight difference versus E+P control rats: -20.4 ± 5.2 g
[4]; s.c.
  weight difference after 10 days of treatment compared to vehicle: over 20%
[5]
  effect as a GAMSA or GAMS: no effect

## C#C[C@]1(O)CC[C@]2(C)C3CC[C@]4(C)/C(=N\OC)CCC4C3CC[C@H]2C1 (stereo partly drawn) [GR3053, 3α-ethynyl-3β-hydroxy-5α-androstan-17-methoxime]
[1]
  100 μM GABA mediated current response, area under curve, Mean ± SEM: −20 ± 2.1%
  activation of the receptor / own effect in absence of GABA: None
[1]; listed as 3α-ethynyl-3β-hydroxy-5α-androstan-17-methoxime
  100 μM GABA mediated current response, area under curve, Mean ± SEM: −20%
[1]; 1 μM steroid, 100 nM THDOC
  reduction (block) of the THDOC enhanced effect: > 100% and 190%
[1]; 1 μM steroid
  effect on GABAs own effect on current response: some antagonistic effect; also recorded: partial antagonistic effect
  reduction of the GABA effect: 20%

## CC[C@]1(O)CC[C@]2(C)C3CC[C@]4(C)/C(=N\O)CCC4C3CC[C@H]2C1 (stereo partly drawn) [GR3055, 3α-ethyl-3β-hydroxy-5α-androstan-17-oxime]
[1]
  100 μM GABA mediated current response, area under curve, Mean ± SEM: −18 ± 3.4%,
  activation of the receptor / own effect in absence of GABA: None
[1]; listed as 3α-ethyl-3β-hydroxy-5α-androstan-17-oxime
  100 μM GABA mediated current response, area under curve, Mean ± SEM: −18%
[1]; 1 μM steroid, 100 nM THDOC
  reduction (block) of the THDOC enhanced effect: 57%
[1]; 1 μM steroid
  effect on GABAs own effect on current response: partial antagonistic effect
  reduction of the GABA effect: 18%

## C[C@]12CC[C@@H](O)C[C@@H]1CC[C@@H]1[C@@H]2CC[C@]2(C)[C@@H](C(=O)CO)CC[C@@H]12 [THDOC, 3α, 21-dihydroxy-5α-pregnan-20-one, reference compound]
[1]; 100 nM THDOC, in absence of GABA
  activation of the α3β3γ2L GABAA receptor by THDOC alone: did not activate
